Active and inactive are the calls of the source.
Columns and labels:
Type in all cases: functional
[1] = target: T1, Short transient receptor potential channel 4 (Mus musculus, UniProt Q9QUQ5); test: calcium entry via TRPC4 opening agents – cell-based, HEK293 TRPC4/mu-opioid, Fluo-4 calcium, dose response (AID 434937)
T1 sequence (Q9QUQ5 whole entry): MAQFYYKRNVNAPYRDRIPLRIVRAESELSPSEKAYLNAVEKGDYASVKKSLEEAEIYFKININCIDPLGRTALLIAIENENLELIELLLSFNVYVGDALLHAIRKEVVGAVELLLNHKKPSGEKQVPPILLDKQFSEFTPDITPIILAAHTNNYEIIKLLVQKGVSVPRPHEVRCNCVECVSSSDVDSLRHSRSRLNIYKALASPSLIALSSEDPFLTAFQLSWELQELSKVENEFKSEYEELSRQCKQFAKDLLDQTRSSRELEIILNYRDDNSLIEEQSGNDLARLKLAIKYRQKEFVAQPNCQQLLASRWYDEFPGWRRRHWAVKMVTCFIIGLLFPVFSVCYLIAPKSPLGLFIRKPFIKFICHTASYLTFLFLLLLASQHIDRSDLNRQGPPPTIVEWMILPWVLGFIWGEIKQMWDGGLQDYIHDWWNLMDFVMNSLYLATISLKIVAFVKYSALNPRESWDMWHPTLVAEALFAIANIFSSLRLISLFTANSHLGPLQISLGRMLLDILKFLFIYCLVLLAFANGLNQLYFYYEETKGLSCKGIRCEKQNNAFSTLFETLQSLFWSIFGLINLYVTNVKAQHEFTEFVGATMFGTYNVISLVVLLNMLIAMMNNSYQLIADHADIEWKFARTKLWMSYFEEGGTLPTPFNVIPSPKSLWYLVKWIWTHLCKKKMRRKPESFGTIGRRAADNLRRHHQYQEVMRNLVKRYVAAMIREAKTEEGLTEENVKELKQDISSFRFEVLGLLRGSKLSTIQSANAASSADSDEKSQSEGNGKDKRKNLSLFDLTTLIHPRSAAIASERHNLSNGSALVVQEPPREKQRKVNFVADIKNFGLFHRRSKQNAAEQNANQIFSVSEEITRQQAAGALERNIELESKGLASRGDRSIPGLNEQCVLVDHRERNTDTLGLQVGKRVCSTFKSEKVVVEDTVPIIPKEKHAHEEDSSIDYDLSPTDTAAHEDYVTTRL

[2] = target: 5-hydroxytryptamine receptor 5A (Homo sapiens, UniProt P47898); test: Counterscreen for agonists of OPRM1-OPRD1 heterodimerization: luminescence-based cell-based high throughput dose response assay to identify agonists of 5-hydroxytryptamine (serotonin) 5A receptor (HTR5A). [Related pubchem assays (depositor defined):AID504326, AID504355, AID504692, AID504904, AID504905]
Sequence of 5-hydroxytryptamine receptor 5A (P47898 whole entry): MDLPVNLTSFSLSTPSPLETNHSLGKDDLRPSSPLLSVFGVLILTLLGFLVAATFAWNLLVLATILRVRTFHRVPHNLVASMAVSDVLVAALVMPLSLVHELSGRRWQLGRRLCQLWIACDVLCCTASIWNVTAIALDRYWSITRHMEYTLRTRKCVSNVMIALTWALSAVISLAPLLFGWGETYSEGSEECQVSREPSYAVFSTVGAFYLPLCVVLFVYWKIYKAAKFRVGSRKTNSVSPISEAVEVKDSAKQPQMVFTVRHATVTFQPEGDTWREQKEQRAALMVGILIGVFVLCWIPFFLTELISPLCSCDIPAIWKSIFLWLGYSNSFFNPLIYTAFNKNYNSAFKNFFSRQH

[3] = target: T2, Corticotropin-releasing factor receptor 2/Corticotropin-releasing factor-binding protein (Homo sapiens, UniProt P24387+Q13324); test: Dose Response confirmation of uHTS hits for small molecule antagonists of the CRF-binding protein and CRF-R2 receptor complex.; details: read-out: IC50_Mean
T2 sequence (Q13324 whole entry): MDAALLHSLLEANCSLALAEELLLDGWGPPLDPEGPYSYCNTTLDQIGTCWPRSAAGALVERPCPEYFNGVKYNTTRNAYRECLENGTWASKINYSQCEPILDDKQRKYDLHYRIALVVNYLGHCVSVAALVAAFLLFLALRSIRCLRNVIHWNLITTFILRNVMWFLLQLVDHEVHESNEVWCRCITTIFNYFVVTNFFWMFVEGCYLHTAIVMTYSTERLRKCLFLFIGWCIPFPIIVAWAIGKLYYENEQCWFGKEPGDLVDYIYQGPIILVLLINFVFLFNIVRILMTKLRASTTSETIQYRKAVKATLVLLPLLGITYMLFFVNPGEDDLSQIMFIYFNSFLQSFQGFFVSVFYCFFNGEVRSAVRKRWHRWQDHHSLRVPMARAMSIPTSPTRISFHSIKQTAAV
T2 sequence (P24387 whole entry): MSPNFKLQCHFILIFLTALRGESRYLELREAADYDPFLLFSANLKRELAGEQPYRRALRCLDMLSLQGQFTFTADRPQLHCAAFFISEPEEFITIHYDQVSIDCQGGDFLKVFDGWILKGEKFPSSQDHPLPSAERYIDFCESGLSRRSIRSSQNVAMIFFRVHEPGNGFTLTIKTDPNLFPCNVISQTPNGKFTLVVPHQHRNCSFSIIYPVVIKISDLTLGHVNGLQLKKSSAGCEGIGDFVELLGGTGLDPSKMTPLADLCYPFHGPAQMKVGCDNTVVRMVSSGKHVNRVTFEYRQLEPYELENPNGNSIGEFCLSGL

[4] = target: T2, Corticotropin-releasing factor receptor 2/Corticotropin-releasing factor-binding protein; test: activators of CRF receptor 2 with binding protein – uHTS hits, confirmation (AID 602473); details: read-out: EC50_Mean
[5] = target: Delta-type opioid receptor (Homo sapiens, UniProt P41143); test: Counterscreen for agonists of heterodimerization of the mu 1 (OPRM1) and delta 1 (OPRD1) opioid receptors: Luminescence-based cell-based high throughput dose response assay to identify agonists of OPRD1 homodimerization. [Related pubchem assays (depositor defined):AID504326, AID504355, AID504692, AID504904, AID504905]
Sequence of Delta-type opioid receptor (P41143 whole entry): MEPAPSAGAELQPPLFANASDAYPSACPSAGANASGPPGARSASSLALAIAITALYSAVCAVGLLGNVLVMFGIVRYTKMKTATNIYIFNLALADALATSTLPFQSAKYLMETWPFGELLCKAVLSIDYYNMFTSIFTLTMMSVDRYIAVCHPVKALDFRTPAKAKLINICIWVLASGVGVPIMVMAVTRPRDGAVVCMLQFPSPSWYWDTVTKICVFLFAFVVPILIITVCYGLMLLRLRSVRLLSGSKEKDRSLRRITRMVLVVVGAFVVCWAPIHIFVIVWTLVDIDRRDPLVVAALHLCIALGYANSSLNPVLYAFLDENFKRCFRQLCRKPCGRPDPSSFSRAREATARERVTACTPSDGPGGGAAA

Mu-type opioid receptor = Mu-type opioid receptor (Homo sapiens, UniProt P35372); test: Counterscreen for agonists of heterodimerization of the mu 1 (OPRM1) and delta 1 (OPRD1) opioid receptors: Luminescence-based cell-based high throughput dose response assay to identify agonists of OPRM1 homodimerization.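 Also: U2OS cells expressing OPRM1 and beta-arrestin as split beta-galactosidase partners.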
Sequence of Mu-type opioid receptor (P35372 whole entry): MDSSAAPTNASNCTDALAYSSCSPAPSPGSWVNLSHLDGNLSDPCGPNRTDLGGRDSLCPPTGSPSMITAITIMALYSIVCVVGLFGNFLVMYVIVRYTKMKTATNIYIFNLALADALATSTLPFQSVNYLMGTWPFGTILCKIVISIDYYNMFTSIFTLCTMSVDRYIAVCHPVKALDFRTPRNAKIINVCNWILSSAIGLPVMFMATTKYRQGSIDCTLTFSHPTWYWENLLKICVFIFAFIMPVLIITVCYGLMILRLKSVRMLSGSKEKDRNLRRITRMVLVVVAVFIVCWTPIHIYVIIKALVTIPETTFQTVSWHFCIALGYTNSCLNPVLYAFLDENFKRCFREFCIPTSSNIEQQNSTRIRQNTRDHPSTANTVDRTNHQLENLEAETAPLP

COc1ccc(-c2nn(-c3ccccc3C)cc2CNCc2cccnc2)cc1F
EC50 [1]: 3.76 µM (active)
EC50 [2]: > 92.5 µM (inactive)
IC50 [3]: > 47.1 µM (inactive)
EC50 [4]: > 53 µM (inactive)
EC50 [5]: > 92.5 µM (inactive)
EC50 (Mu-type opioid receptor): > 92.5 µM (inactive)

Reference: ChEMBL document CHEMBL1201862, “PubChem BioAssay data set” (2004)
